Experimental data as given in ChEMBL document CHEMBL3414511, “Synthesis of a novel class of substituted benzothiophene or benzofuran derivatives as BMP-2 up-regulators and evaluation of the BMP-2-up-regulating effects in vitro and the effects on glucocorticoid-induced osteoporosis in rats” (Eur J Med Chem, 2015).
Activity calls are given as the source filed them. The calls are words filed in the database; no cut-off is given here.

Experiments:
[1] = Upregulation of BMP-2 expression in mouse MC3T3-E1 cells at 0.4 uM after 24 hrs by luciferase reporter gene assay relative to control; type: functional, cell-based
[2] = tested on: Rattus norvegicus; assay: Toxicity in glucocorticoid-induced Wistar rat osteoporosis model assessed as white blood cells at 30 mg/kg/day, po administered six times a week for 3 months (reference value: 6.28 +/- 2.78 x 10^9/L); type: organism-based; design: route oral; conditions: in vivo
[3] = tested on: Rattus norvegicus; assay: Toxicity in glucocorticoid-induced Wistar rat osteoporosis model assessed as lymph level at 30 mg/kg/day, po administered six times a week for 3 months (reference value: 50.35 +/- 12.96%); type: organism-based; design: route oral; conditions: in vivo
[4] = tested on: Rattus norvegicus; assay: Toxicity in glucocorticoid-induced Wistar rat osteoporosis model assessed as neutrophilic granulocytes level at 30 mg/kg/day, po administered six times a week for 3 months (reference value: 31.95 +/- 8.33%); type: organism-based; design: route oral; conditions: in vivo
[5] = tested on: Rattus norvegicus; assay: Toxicity in glucocorticoid-induced Wistar rat osteoporosis model assessed as effect on red blood cells at 30 mg/kg/day, po administered six times a week for 3 months; type: organism-based; design: route oral; conditions: in vivo
[6] = tested on: Rattus norvegicus; assay: Toxicity in glucocorticoid-induced Wistar rat osteoporosis model assessed as effect on hemoglobin at 30 mg/kg/day, po administered six times a week for 3 months; type: organism-based; design: route oral; conditions: in vivo
[7] = tested on: Rattus norvegicus; assay: Toxicity in glucocorticoid-induced Wistar rat osteoporosis model assessed as effect on red blood cell specific volume at 30 mg/kg/day, po administered six times a week for 3 months; type: organism-based; design: route oral; conditions: in vivo
[8] = tested on: Rattus norvegicus; assay: Toxicity in glucocorticoid-induced Wistar rat osteoporosis model assessed as effect on mean corpuscular volume at 30 mg/kg/day, po administered six times a week for 3 months; type: organism-based; design: route oral; conditions: in vivo
[9] = tested on: Rattus norvegicus; assay: Toxicity in glucocorticoid-induced Wistar rat osteoporosis model assessed as effect on mean corpuscular hemoglobin concentration at 30 mg/kg/day, po administered six times a week for 3 months; type: organism-based; design: route oral; conditions: in vivo
[10] = tested on: Rattus norvegicus; assay: Toxicity in glucocorticoid-induced Wistar rat osteoporosis model assessed as effect on red blood cell distribution width at 30 mg/kg/day, po administered six times a week for 3 months; type: organism-based; design: route oral; conditions: in vivo
[11] = tested on: Rattus norvegicus; assay: Toxicity in glucocorticoid-induced Wistar rat osteoporosis model assessed as effect on platelets at 30 mg/kg/day, po administered six times a week for 3 months; type: organism-based; design: route oral; conditions: in vivo
[12] = Upregulation of BMP-2 expression in mouse MC3T3-E1 cells at 4 uM after 24 hrs by luciferase reporter gene assay relative to control; type: functional, cell-based
[13] = tested on: Rattus norvegicus; assay: Toxicity in glucocorticoid-induced Wistar rat osteoporosis model assessed as aspartate transaminase level at 30 mg/kg/day, po administered six times a week for 3 months (reference value: 177.55 +/- 116.98 U/L); type: organism-based; design: route oral; conditions: in vivo
[14] = tested on: Rattus norvegicus; assay: Toxicity in glucocorticoid-induced Wistar rat osteoporosis model assessed as alanine transaminase level at 30 mg/kg/day, po administered six times a week for 3 months (reference value: 43.73 +/- 36.21 U/L); type: organism-based; design: route oral; conditions: in vivo
[15] = tested on: Rattus norvegicus; assay: Toxicity in glucocorticoid-induced Wistar rat osteoporosis model assessed as triglycerides level at 30 mg/kg/day, po administered six times a week for 3 months (reference value: 1.13 +/- 0.69 mmol/L); type: organism-based; design: route oral; conditions: in vivo
[16] = tested on: Rattus norvegicus; assay: Toxicity in glucocorticoid-induced Wistar rat osteoporosis model assessed as effect on total bilirubin level at 30 mg/kg/day, po administered six times a week for 3 months; type: organism-based; design: route oral; conditions: in vivo
[17] = tested on: Rattus norvegicus; assay: Toxicity in glucocorticoid-induced Wistar rat osteoporosis model assessed as effect on total protein level at 30 mg/kg/day, po administered six times a week for 3 months; type: organism-based; design: route oral; conditions: in vivo
[18] = tested on: Rattus norvegicus; assay: Toxicity in glucocorticoid-induced Wistar rat osteoporosis model assessed as effect on albumin level at 30 mg/kg/day, po administered six times a week for 3 months; type: organism-based; design: route oral; conditions: in vivo
[19] = tested on: Rattus norvegicus; assay: Toxicity in glucocorticoid-induced Wistar rat osteoporosis model assessed as effect on blood urea nitrogen level at 30 mg/kg/day, po administered six times a week for 3 months; type: organism-based; design: route oral; conditions: in vivo
[20] = tested on: Rattus norvegicus; assay: Toxicity in glucocorticoid-induced Wistar rat osteoporosis model assessed as effect on creatinine level at 30 mg/kg/day, po administered six times a week for 3 months; type: organism-based; design: route oral; conditions: in vivo
[21] = tested on: Rattus norvegicus; assay: Toxicity in glucocorticoid-induced Wistar rat osteoporosis model assessed as effect on glucose level at 30 mg/kg/day, po administered six times a week for 3 months; type: organism-based; design: route oral; conditions: in vivo
[22] = Acute toxicity in po dosed Kunming mouse administered for 3 days measured during compound dosing and following 14 days; type: organism-based; conditions: in vivo
[23] = tested on: Rattus norvegicus; assay: Antiosteoporotic activity in glucocorticoid-induced Wistar rat osteoporosis model assessed as increase in trabecula number at 30 mg/kg/day, po administered six times a week for 3 months by toluidine blue staining-based light microscopic analysis relative to dexamethasone; type: functional, organism-based
[24] = tested on: Rattus norvegicus; assay: Antiosteoporotic activity in glucocorticoid-induced Wistar rat osteoporosis model assessed as increase in trabecula thickness at 30 mg/kg/day, po administered six times a week for 3 months by toluidine blue staining-based light microscopic analysis relative to dexamethasone; type: functional, organism-based
[25] = tested on: Rattus norvegicus; assay: Antiosteoporotic activity in glucocorticoid-induced Wistar rat osteoporosis model assessed as increase in trabecula area at 30 mg/kg/day, po administered six times a week for 3 months by toluidine blue staining-based light microscopic analysis relative to dexamethasone; type: functional, organism-based
[26] = tested on: Rattus norvegicus; assay: Antiosteoporotic activity in glucocorticoid-induced Wistar rat osteoporosis model assessed as increase in trabecula connectivity at 30 mg/kg/day, po administered six times a week for 3 months by toluidine blue staining-based light microscopic analysis relative to dexamethasone; type: functional, organism-based
[27] = tested on: Rattus norvegicus; assay: Antiosteoporotic activity in glucocorticoid-induced Wistar rat osteoporosis model assessed as trabecular bone volume at 30 mg/kg/day, po administered six times a week for 3 months by fluorescence assay (reference value: 33.09 +/- 5.15%); type: functional, Trabecula
[28] = tested on: Rattus norvegicus; assay: Antiosteoporotic activity in glucocorticoid-induced Wistar rat osteoporosis model assessed as trabecula formation surface at 30 mg/kg/day, po administered six times a week for 3 months by fluorescence assay (reference value: 7.82 +/- 2.46%); type: functional
[29] = tested on: Rattus norvegicus; assay: Antiosteoporotic activity in glucocorticoid-induced Wistar rat osteoporosis model assessed as trabecula resorption surface at 30 mg/kg/day, po administered six times a week for 3 months by fluorescence assay (reference value: 7.22 +/- 2.04%); type: functional
[30] = tested on: Rattus norvegicus; assay: Antiosteoporotic activity in glucocorticoid-induced Wistar rat osteoporosis model assessed as mineral apposition rate at 30 mg/kg/day, po administered six times a week for 3 months by fluorescence assay (reference value: 1.06 +/- 0.27 micrometer/day); type: functional
[31] = tested on: Mus musculus; assay: Acute toxicity in Kunming mouse assessed as behavioral changes at 700 mg/kg, po administered for 3 days measured during compound dosing and following 14 days; type: organism-based; design: dose 700 mg/kg, route oral; conditions: in vivo, 336 h
[32] = tested on: Mus musculus; assay: Acute toxicity in Kunming mouse assessed as shiny fur at 700 mg/kg, po administered for 3 days measured during compound dosing and following 14 days; type: organism-based; design: dose 700 mg/kg, route oral; conditions: in vivo, 336 h
[33] = tested on: Rattus norvegicus; assay: Antiosteoporotic activity in glucocorticoid-induced Wistar rat osteoporosis model assessed as densed trabecula at 30 mg/kg/day, po administered six times a week for 3 months by toluidine blue staining-based light microscopic analysis relative to dexamethasone; type: functional, organism-based
[34] = tested on: Mus musculus; assay: Acute toxicity in Kunming mouse assessed as behavioral changes at 500 mg/kg, po administered for 3 days measured during compound dosing and following 14 days; type: organism-based; design: dose 500 mg/kg, route oral; conditions: in vivo, 336 h
[35] = tested on: Mus musculus; assay: Acute toxicity in Kunming mouse assessed as shiny fur at 500 mg/kg, po administered for 3 days measured during compound dosing and following 14 days; type: organism-based; design: dose 500 mg/kg, route oral; conditions: in vivo, 336 h

SMILES | Activity [2] | Activity [3] | Activity [4] | Activity [5] | Activity [6] | Activity [7] | Activity [8] | Activity [9] | Activity [10] | Activity [11] | Activity [13] | Activity [14] | Activity [15] | Activity [16] | Activity [17] | Activity [18] | Activity [19] | Activity [20] | Activity [21] | LD50 at 336 h [22] | further results
CC[C@H](C)C(=O)O[C@H]1C[C@@H](C)C=C2C=C[C@H](C)[C@H](CC[C@@H]3C[C@@H](O)CC(=O)O3)[C@H]21 | – | – | – | – | – | – | – | – | – | – | – | – | – | – | – | – | – | – | – | – | Activity [1]: 20.9%
CCOC(=O)c1cc2ccc(C(=O)OC)cc2s1 | 3.03 ×10⁹ /L | 46.39% | 40.03% | Non-toxic | Non-toxic | Non-toxic | Non-toxic | Non-toxic | Non-toxic | Non-toxic | 124.42 U/L | 26.25 U/L | 0.36 mmol/L | Non-toxic | Non-toxic | Non-toxic | Non-toxic | Non-toxic | Non-toxic | > 700 mg/kg | Activity [12]: 123%; Activity [23]: Active; Activity [24]: Active; Activity [25]: Active; Activity [26]: Active; Activity [27]: 28.61%; Activity [28]: 6.69%; Activity [29]: 8.92%; Activity [30]: 1.13 micrometer/day; Activity [31]: Non-toxic; Activity [32]: Non-toxic
COC(=O)c1ccc2cc(C(C)=O)sc2c1 | 4.52 ×10⁹ /L | 34.98% | 48.93% | Non-toxic | Non-toxic | Non-toxic | Non-toxic | Non-toxic | Non-toxic | Non-toxic | 119.08 U/L | 31.55 U/L | 0.52 mmol/L | Non-toxic | Non-toxic | Non-toxic | Non-toxic | Non-toxic | Non-toxic | > 700 mg/kg | Activity [12]: 85.2%; Activity [33]: Active; Activity [27]: 24.72%; Activity [28]: 5.95%; Activity [29]: 9.52%; Activity [30]: 0.99 micrometer/day; Activity [31]: Non-toxic; Activity [32]: Non-toxic
CC(=O)c1cc2cc(C(=O)O)ccc2s1 | 3.31 ×10⁹ /L | 36.73% | 47.71% | Non-toxic | Non-toxic | Non-toxic | Non-toxic | Non-toxic | Non-toxic | Non-toxic | 103.17 U/L | 26.67 U/L | 0.62 mmol/L | Non-toxic | Non-toxic | Non-toxic | Non-toxic | Non-toxic | Non-toxic | > 500 mg/kg | Activity [12]: 93.2%; Activity [33]: Active; Activity [27]: 23.13%; Activity [28]: 5.03%; Activity [29]: 10.3%; Activity [30]: 1.03 micrometer/day; Activity [34]: Non-toxic; Activity [35]: Non-toxic
CCOC(=O)c1cc2cc3c(cc2s1)OCO3 | 3.27 ×10⁹ /L | 46.29% | 41.49% | Non-toxic | Non-toxic | Non-toxic | Non-toxic | Non-toxic | Non-toxic | Non-toxic | 114.82 U/L | 28.27 U/L | 0.34 mmol/L | Non-toxic | Non-toxic | Non-toxic | Non-toxic | Non-toxic | Non-toxic | > 500 mg/kg | Activity [33]: Active; Activity [27]: 22.07%; Activity [28]: 5.72%; Activity [29]: 9.43%; Activity [30]: 0.95 micrometer/day; Activity [34]: Non-toxic; Activity [35]: Non-toxic
